Experimental data taken from paper PMC3154333, “Specificity of RSG-1.2 Peptide Binding to RRE-IIB RNA Element of HIV-1 over Rev Peptide Is Mainly Enthalpic in Origin” (PLoS ONE, 2011).
“And” between values parts separate entries of the source, which are not always exact repeats. Identical values can stand only once. “Also recorded” adds a separate entry of the source.

Experiments:
RRE-IIB RNA [1] = experiment: Isothermal titration calorimetry (ITC) of peptide binding to RRE-IIB; set-up: species or system HIV-1; details: for N1 / N2: ITC stoichiometry; for N1 / ΔH1 (binding enthalpy ΔH) / TΔS1: first site; for N1 / N2 / ΔH1 (binding enthalpy ΔH) / Ka2 / TΔS2 / ΔH2 / TΔS1: two-site model; for N2 / Ka2 / TΔS2 / ΔH2: second (low affinity) site; for ΔH1 (binding enthalpy ΔH): 350 µM peptide into 10 µM RRE-IIB, corrected for heat of dilution, pH 7.5, 50 mM NaCl; for Ka1 / TΔS1: RSG-1.2 mutants; for Ka1: high affinity site, model for two set of binding sites, 10 mM sodium cacodylate, 0.1 mM EDTA, 50 mM NaCl, ± = SD of data from fitted curve; for TΔS1: derived from fits of ITC profiles
Description: (§1) Fluorescence labeled RNA having 2-Aminopurine (2-AP) at U72 position of RRE-IIB was obtained from Ocimum Biosolutions Ltd. Netherlands. All the stock solutions were prepared in Milli-Q water. Other reagents were commercially available and were of analytical grade quality and used without any further purification. All the experiments were performed using 10 mM sodium cacodylate buffer containing 0.1 mM EDTA and 50 mM NaCl at pH 7.5.
(§2) Isothermal titration calorimetry measurements were conducted at 25°C on a Microcal VP-ITC (Microcal, Inc.; Northampton MA). Titration of RRE-IIB with Rev as well as RSG-1.2 were done by injecting 4 µL aliquots of 350 µM peptide from a 250 µL rotating syringe (350 rpm) into an isothermal sample chamber containing 1.5 mL of 10 µM RRE-IIB solution. Each experiment of this type was accompanied by the corresponding control experiment in which 350 µM peptide were injected into a solution of buffer alone. The duration of each injection was 8 s and the delay between the injections was 300 s, the initial delay prior to the first injection was 200 s. Each injection generated a heat burst curve (microcalories/second vs. seconds) and the area under each curve was determined by integration [using origin version 7.0 software (Microcal, Inc.; Northampton, MA)] to obtain the measure of heat associated with that injection. The buffer corrected ITC profiles for the binding of Rev and RSG-1.2 were fit with a model for two set of binding site. The net enthalpy change for RRE-IIB stem loop interaction with Rev and RSG-1.2 were determined by subtraction of the heat of dilution.

2-AP labeled RRE-IIB RNA = experiment: Fluorescence titration of 2-AP labeled RRE-IIB with peptides; assay type: binding, HIV-1; details: pH 7.5, 25°C
Description: as §1
Steady state fluorescence spectra were collected using Xe 900 lamp of Edinburgh instruments Spectrofluorometer equipped with thermoelectrically controlled cell holders. The excitation of the sample was done at 320 nm wavelength and fluorescence spectra were collected from 340 nm to 450 nm. The excitation as well as emission slit width were kept at 3 nm. A quartz cell of 1 cm path length, transparent from four sides, was used. All the experiments were conducted at 25°C. RNA concentration was fixed at 0.1 µM and the peptide concentration was varied from 0–0.3 µM. The buffer solution contained 10 mM sodium cacodylate buffer, 0.1 mM EDTA and 50 mM NaCl at pH 7.5 and 25°C. The changes in the fluorescence intensity at 370 nm were monitored as a function of increase in peptide concentration. For data analysis, the observed fluorescence intensity was considered as the sum of the weighted contributions from a peptide bound and an unbound RNA form. [drawing 1] (1)
Where F corresponds to the observed fluorescence intensity at each titrant concentration, F0 and Fb are the respective fluorescence intensities of initial and final states of titration, α is the mole fractions of RNA in bound form. Assuming 1∶1 stoichiometry for the interaction, it can be shown that: [drawing 2] (2)
Where Ka is the association constant, [R0] is the total RNA concentration and [Lt] is the added peptide concentration. From Equations (1) and (2), it can be shown that: [drawing 3] (3)
Where ΔF = F – F0 and ΔFmax = Fmax – F0
The free energy of binding was calculated from the standard relation ΔG = -RTlnKa where R is the universal gas constant and T is the absolute temperature in Kelvin.
Fluorescence spectroscopy is a useful tool for determining binding constants of two interacting partners. We employed this tool for determining binding affinity of Rev and RSG-1.2 with the RRE-IIB RNA stem loop structure. In order to carry out fluorescence titration, RRE-IIB RNA was fluorescently labeled by incorporating 2-Aminopurine (2-AP) at position U72. […] All the fluorescence titrations were performed using 10 mM sodium cacodylate buffer containing 0.1 mM EDTA and 50 mM NaCl at pH 7.5 and at 25°C. […] Normalized change in fluorescence intensity at 370 nm was plotted against molar concentration of peptide. […]

RRE-IIB RNA [2] = experiment: Temperature dependent UV melting of RRE-IIB with peptides; assay type: binding, HIV-1; details: pH 7.5
Description: Temperature dependent UV melting experiments were carried out using a Cary 100 (Varian) Spectrophotometer equipped with thermoelectrically controlled cell holder. A quartz cell of 1cm path length was used for all absorbance studies. Temperature dependent absorption spectra were obtained at 260 nm with rate of 0.5°C/min. increase in temperature, from 40 to 95°C. In these experiments the concentration of RNA was kept 1 µM and peptide concentration was increased from 0–3 µM. The buffer solution contained 10 mM sodium cacodylate buffer, 0.1 mM EDTA and 50 mM NaCl at pH 7.5. For each optically detected transition, the melting temperature (Tm) was determined using previously described methods.

RRE-IIB RNA [3] = experiment: CD spectroscopy of RRE-IIB with peptides; assay type: binding, HIV-1; details: 5 µM RNA, pH 7.5, 25°C
Description: Circular dichroism (CD) spectra were recorded on a Jasco spectropolarimeter (model J815, Japan) equipped with a thermoelectrically controlled cell holder. The cuvette used for acquiring spectra was of 1 cm in path length. CD spectra were recorded from 350 nm to 200 nm; with accumulation of 3 and averaged at 25°C. The buffer solution contained 10 mM sodium cacodylate buffer, 0.1 mM EDTA and 50 mM NaCl at pH 7.5. In a titration experiment RNA concentration was fixed at 5 µM and the peptides concentration varied from 0–25 µM.

RRE-IIB RNA [4] = experiment: Temperature dependent ITC (heat capacity change); assay type: binding, HIV-1; details: ITC at 10, 20, 25 and 35°C, pH 7.5
Description: as §2
Heat capacity changes (ΔCp), that accompany the peptide binding to RNA can be determined by performing temperature dependent ITC experiments under same buffer conditions. […]

Sequence: DRRRRGSRPSGAERRDRRAAAA [R15D]
- N1 (RRE-IIB RNA [1]; pH 7.5, 25°C): 1.5
- N2 (RRE-IIB RNA [1]; pH 7.5, 25°C): 1.5
- ΔH1 (binding enthalpy ΔH) (RRE-IIB RNA [1]; ITC, 25°C): -3.9 ± 0.1 kcal/mol
- Ka1 (RRE-IIB RNA [1]; ITC, pH 7.5, 25°C): 2.9±0.4 M^−1 × 10^7
- Ka2 (RRE-IIB RNA [1]; ITC, pH 7.5, 25°C): 14.2±0.2 M^−1 × 10^5
- TΔS2 (RRE-IIB RNA [1]; ITC, pH 7.5, 25°C): 7.3 ± 0.4 kcal/mol
- ΔH2 (RRE-IIB RNA [1]; ITC, pH 7.5, 25°C): -1.0 ± 0.1 kcal/mol
- TΔS1 (RRE-IIB RNA [1]; pH 7.5, 25°C): 6.2 ± 0.3 kcal/mol

Sequence: DTRQARRNRRRRWRERQRAAAAR [Rev, minimal arginine rich Rev peptide of HIV-1 ([…])]
- change in fluorescence intensity of 2-AP RRE-IIB (2-AP labeled RRE-IIB RNA; 0.1 µM RNA, 370 nm): fluorescence intensity increased upon addition of peptide
- association constant Ka (2-AP labeled RRE-IIB RNA; 2-AP at U72, 0.1 µM RNA, 370 nm, 10 mM sodium cacodylate, 0.1 mM EDTA, 50 mM NaCl, fit with equation 3 (1∶1)): 3.1±0.4×10^7 M^−1
- Ka1 (2-AP labeled RRE-IIB RNA; fluorescence binding studies (footnote b), 2-AP at U72, 0.1 µM RNA, peptide 0–0.3 µM, ex 320 nm/em 370 nm, 10 mM sodium cacodylate, 0.1 mM EDTA, 50 mM NaCl, 1∶1 fit): 3.1±0.4 ^b M^−1 × 10^7
- ΔG (Gibb's free energy of binding) (2-AP labeled RRE-IIB RNA; ΔG = -RTlnKa, fluorescence Ka): -10.2 ± 0.1 kcal/mol
- ΔH1 (binding enthalpy ΔH) (RRE-IIB RNA [1]; ITC, 25°C): ≈ 0 kcal/mol and 0 kcal/mol
- heat changes / enthalpy of binding (in words) (RRE-IIB RNA [1]; ITC, 25°C, pH 7.5): small; also recorded: almost zero enthalpy of interaction; also recorded: negligible enthalpy
- TΔS1 (TΔS) (RRE-IIB RNA [1]; calculated by ΔG = ΔH − TΔS from fluorescence Ka and ITC ΔH (footnote c), pH 7.5, 25°C): 10.2±0.2 kcal/mol and 10.2±0.2 ^c kcal/mol
- TΔS (RRE-IIB RNA [1]; calculated by ΔG = ΔH − TΔS, 25°C, pH 7.5): 10.2 ± 0.2 kcal/mol
- thermodynamic driving force (RRE-IIB RNA [1]; from ΔH and TΔS, 25°C, pH 7.5): essentially entropically driven; also recorded: exclusively entropy driven
- ΔTm (increase in Tm of RRE-IIB; Tm of RNA alone 67.3°C) (RRE-IIB RNA [2]; peptide to RNA molar ratio 1∶1, 1 µM RNA, 260 nm, 0.5°C/min, 10 mM sodium cacodylate, 50 mM NaCl, 0.1 mM EDTA): 1 °C
- change in Tm at higher peptide ratios (RRE-IIB RNA [2]; ratios above 1∶1 (2∶1 and 3∶1), 1 µM RNA): negligible changes were observed
- CD signal of RRE-IIB at 240 nm and 210 nm (RRE-IIB RNA [3]; peptide 0–25 µM (up to 5∶1), 10 mM sodium cacodylate, 50 mM NaCl, 0.1 mM EDTA): became more negative at 240 nm and 210 nm
- CD signal of RRE-IIB at 265 nm (RRE-IIB RNA [3]; up to 5∶1 peptide): no significant change was observed at 265 nm
- change in heat capacity (in words) (RRE-IIB RNA [4]): essentially no change in heat capacity
- temperature dependence of binding enthalpy (RRE-IIB RNA [4]): does not show any change in enthalpy of binding; also recorded: no change in binding enthalpy

Sequence: DRRRRGSRPSGAERKRRRAAAA [R15K]
- N1 (RRE-IIB RNA [1]; pH 7.5, 25°C): 1.6
- N2 (RRE-IIB RNA [1]; pH 7.5, 25°C): 1.6
- ΔH1 (binding enthalpy ΔH) (RRE-IIB RNA [1]; ITC, 25°C): -8.7 ± 0.1 kcal/mol
- Ka1 (RRE-IIB RNA [1]; ITC, pH 7.5, 25°C): 2.4±0.7 M^−1 × 10^7
- Ka2 (RRE-IIB RNA [1]; ITC, pH 7.5, 25°C): 7.0±0.2 M^−1 × 10^5
- TΔS2 (RRE-IIB RNA [1]; ITC, pH 7.5, 25°C): 5.5 ± 0.1 kcal/mol
- ΔH2 (RRE-IIB RNA [1]; ITC, pH 7.5, 25°C): -2.4 ± 0.3 kcal/mol
- TΔS1 (RRE-IIB RNA [1]; pH 7.5, 25°C): 1.3 ± 0.2 kcal/mol
